Results published in patent US20250382258A1, “NAPHTHALENE-TYPE COMPOUND AND PREPARATION METHOD THEREFORE AND USE THEREFORE” (DALIAN INSTITUTE OF CHEMICAL PHYSICS, CHINESE ACADEMY OF …, priority 2022, published 2025).
Converted amounts (≈) assume the structure as drawn.

assay: not given; details: in a pH=14 aqueous solution; cited from earlier work

**Q.** With `O=C1C(O)=C(C2=C(O)C(=O)c3ccccc3C2=O)C(=O)c2ccccc21` [bilawsone] as the compound, how does the solubility read?
**A.** Its solubility is 560 mM (≈ 194 mg/mL).

assay: water solubility under acidic conditions; type: physicochemical; details: not given

**Q.** With `Oc1c(NCc2ccccc2)cc(NCc2ccccc2)c2c(O)c(NCc3ccccc3)cc(NCc3ccccc3)c12` [2,4,6,8-Tetrabenzylamine-1,5-naphthalenediol] as the compound, how does the “water solubility under acidic conditions” value read?
**A.** Its value is “lower than 1 M”.

**Q.** With `O=C1C(O)=C(NCc2ccccc2)C(=O)c2ccccc21` [3-benzylamine-2-hydroxy-1,4-dicarbonylnaphthalene] as the compound, how does the “water solubility under acidic conditions” value read?
**A.** Its value is “approximately 1 M”.

**Q.** Which “water solubility under acidic conditions” value does the source give for `Oc1c(NCc2ccccc2)ccc2c(O)c(NCc3ccccc3)ccc12` [2,6-Dibenzylamine-1,5-naphthalenediol] here?
**A.** The value was “lower than 5 mM”.

**Q.** With “2,2′,6,6′-tetrabenzylamine-5,5′-dihydroxy-1,1′-dicarbonylbinaphthalene” as the compound, how does the “water solubility under acidic conditions” value read?
**A.** The value was “approximately 2 M”.

**Q.** For `O=C1C(NCc2ccccc2)=C(O)C(=O)c2c(O)c(NCc3ccccc3)cc(NCc3ccccc3)c21` [3,5,7-tribenzylamine-2,8-dihydroxy-1,4-dicarbonylnaphthalene], which “water solubility under acidic conditions” value is on record?
**A.** The value was “approximately 1.6 M”.
